This is an account of results in paper PMC7732020 (Nucleosides, nucleotides & nucleic acids, 2009).

Molecules are shown by their SMILES. Where two headings read alike, the source gives them in different places.

One data set has as its system HIV. The following applies: isomeric adenine nucleosides with 2′-α-fluoro atom; cited from earlier work.
The subject of data set [1] is human PBM cells. The conditions noted are these: cited from earlier work.
In data set [2] the test system is HIV-1. The following applies: read-out: Anti-HIV-1 activity EC50; PBM cells; taken from literature; cited from earlier work.
Data set [3] deals with HIV-1. Briefly: Anti-HIV-1 activity in human PBM cells. In kind it is cell-based. The following applies: primary human PBM cells; for EC50: read-out: Anti-HIV-1 activity EC50; for EC90: read-out: Anti-HIV-1 activity EC90.
Data set [4] relates to human PBM cells.
Another data set concerns HCV. In words: Anti-HCV activity in replicon assay Huh7 cells. The following applies: for EC50: read-out: Anti-HCV activity EC50; for EC90: read-out: Anti-HCV activity EC90. In kind it is cell-based, hepatitis C virus. Background: In antiviral work, replicon cells carry a viral genome segment that copies itself.
A further data set deals with Huh-7 Replicon cells. Briefly: Toxicity in Huh-7 Replicon cells. The following applies: read-out: CC50 (toxicity in Huh-7 Replicon cells); replicon assay Huh7 cells.

In the case of `Nc1ncnc2c1ncn2[C@@H]1O[C@H](CO)[C@@H](F)[C@H]1F` [2′,3′-dideoxy-2′,3′-difluoro–adenosine], the antiviral activity result in the data set on HIV is listed as “without antiviral activity”.
`Nc1ncnc2c1ncn2[C@@H]1O[C@H](CO)C[C@H]1F` [2′-α-FddA, 9-(2′,3′-dideoxy-2′-fluoro-β-D-erythro-pentofuranosyl)adenine]: the antiviral activity entry in the data set with HIV is “without antiviral activity”.
Broadly, the CC50 is the concentration giving 50% cytotoxicity. In general, EC50 refers to the concentration giving half of the maximal effect. For the molecule `Nc1ncnc2c1ncn2[C@@H]1O[C@H](CO)C[C@@H]1F` [2′-β-FddA, lodenosine], in the data set on human PBM cells [1], the CC50 was above 100 µM. The EC50 in the data set with HIV-1 [2] was 4.4 µM.
What is called EC90 is the concentration at which the effect reaches the 90% level. In the case of `Cc1cn([C@H]2C[C@H](N=[N+]=[N-])[C@@H](CO)O2)c(=O)[nH]c1=O` [AZT, reference compound], in the data set on Vero cells, the CC50 turned out to be 56 µM. Also, in the data set with HIV-1 [3], the half-maximal effective concentration (EC50) was determined as 0.0026 µM and the EC90 came out at 0.01 µM. In the data set with human PBM cells [4], this molecule yielded a 50% cytotoxic concentration (CC50) above 100 µM.
On to `C[C@@]1(O)[C@H](O)[C@@H](CO)O[C@H]1n1ccc(N)nc1=O` [Compound 2-C-Me-C, reference compound], for which, in the data set on HCV, the EC50 stood at 1.3 µM and the 90% effect concentration (EC90) is 5.4 µM. Moreover, in the data set with Huh-7 Replicon cells, the CC50 was above 10 µM.
In the case of `Nc1ncnc2c1ncn2[C@@H]1O[C@H](CO)[C@@H](F)[C@@H]1F` [Compound 20, 9-(2′,3′-Dideoxy-2′,3′-difluoro-β-D-arabinofuranosyl)adenine], the values for the EC50 in the data set on HCV and with HIV-1 [3] were above 10 µM and 0.72 µM, respectively. Moreover, the figures for the EC90 with HCV and in the data set on HIV-1 [3] were above 10 µM and 10.3 µM, respectively. For the same molecule, the CC50 is above 100 µM in the data set with Vero cells, above 100 µM with CEM cells, above 10 µM in the data set with Huh-7 Replicon cells and above 100 µM with human PBM cells [4].
On to `Nc1nc(Cl)nc2c1ncn2[C@@H]1O[C@H](CO)[C@@H](F)[C@@H]1F` [Compound 22, 2-chloro-9-(2′,3′-dideoxy-2,3-difluoro-β-D-arabinofuranosyl)adenine], for which the EC50 in the data set with HCV was above 10 µM; in the data set on HIV-1 [3] it was 14.1 µM. Moreover, the values for the EC90 with HCV and in the data set with HIV-1 [3] were above 10 µM and 46.3 µM, respectively. The CC50 in the data set with Vero cells is above 100 µM; in the data set on CEM cells, 70.2 µM; with Huh-7 Replicon cells, above 10 µM; with human PBM cells [4] it was 13.6 µM.
